From PubChem BioAssay (NCI) come the findings set out here.

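Grown in 96-well plates, cells were treated for 48 hours with each compound at five concentrations. Insufficient inhibition: endpoint recorded as highest concentration tested. Here, GI50 denotes the concentration required for 50% inhibition of growth. TGI is the concentration that stops growth completely.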

Common to all, as to test: growth of human tumour cells (NCI), 48 h
The subject of assay [1] is UACC-257 melanoma.
Assay [2] concerns 786-0 renal.
Assay [3] deals with SN12C renal.
Assay [4] concerns HCT-15 colon.
Assay [5] relates to CCRF-CEM leukemia.
The test system of assay [6] is IGROV1 ovarian.
Assay [7] has as its system SK-MEL-28 melanoma.
Assay [8] deals with MOLT-4 leukemia.
Assay [9] deals with HCT-116 colon.
Assay [10] has as its system RPMI-8226 leukemia.

As to `Cc1cnc2[nH]c(-c3cccc(Cl)c3)cc(=O)c2c1`, the TGI in [1], in [2], in assay [3], in [4], in [5] and in assay [6] was above 100 µM in each case. Besides, the TGI in assay [7] was above 100 µM.

As to `CCOC(=O)CCC(NC(=O)c1ccc(NCc2ccc3nc(-c4ccccc4)c(Cl)nc3c2)c2ccccc12)C(=O)OCC` (stereo not drawn), the TGI is 61.5 µM in assay [1]; above 100 µM in assay [2]; above 100 µM in assay [3]; above 100 µM in [4]; 27.9 µM in [8]; above 100 µM in assay [9]. For the same compound, in [7], the TGI is above 100 µM.

`Cc1nc2sccn2c1C(=O)OCCOCCOCCOCCOC(=O)c1c(C)nc2sccn12`: the TGI in assay [1], in assay [2], in assay [3], in assay [4], in assay [8] and in [6] was above 100 µM in each case. The TGI in assay [9], in [7] and in [10] was above 100 µM throughout.

With `CC12CCC(C1)C(C)(C)C2OC(=O)c1ccccc1C(=O)O` (stereo not drawn), the TGI in assay [1], in [2], in assay [3], in assay [4], in assay [8] and in [6] was above 100 µM in each case. For the same compound, the TGI in assay [9], in assay [7] and in assay [10] was above 100 µM each time.

Take `O=C(NNCc1ccccc1O)c1ccccc1O`: the TGI in [1], in assay [2], in assay [3], in assay [4], in assay [8] and in assay [6] was above 100 µM throughout. Moreover, the TGI in assay [9], in assay [7] and in assay [10] was above 100 µM in each case.

As for `C/C(=N\n1c(Cc2ccccc2)n[nH]c1=O)c1ccc([N+](=O)[O-])cc1`, the TGI in assay [1], in [2], in assay [3], in assay [4], in [8] and in assay [6] was above 100 µM throughout. Also, the TGI in [9], in assay [7] and in [10] was above 100 µM throughout.

With `CN1CCN(c2c(O)c3c(c(O)c2Cl)C(=O)C=CC3=O)CC1`, the TGI stood at 1.58 µM in assay [1]; 0.718 µM in assay [2]; 2.1 µM in assay [3]; 0.491 µM in [4]; 0.41 µM in assay [5]; 2.6 µM in [6]. Moreover, the TGI was determined as 0.51 µM in assay [9], 2.51 µM in assay [7] and 2.34 µM in [10].

In the case of `CC(C)C[C@H](NC(=O)[C@H](CCc1ccccc1)NC(=O)c1ccc2ccccc2n1)B(O)O`, the TGI in [1] amounted to 0.0676 µM; in assay [2], 0.706 µM; in [3] it was 0.486 µM; in assay [4] it was 0.52 µM; in assay [8] it was 4.76 µM; in assay [6], 0.972 µM. Further, the TGI was 0.0595 µM in assay [9], 0.055 µM in assay [7] and above 39.1 µM in assay [10].

On to `c1ccc2nn(C3CCCCO3)nc2c1` (stereo not drawn), for which the TGI in assay [1], in assay [2], in assay [3], in assay [4], in assay [8] and in [5] was above 100 µM each time. Further, the TGI in [6] and in assay [9] was above 100 µM in each case.

Consider `C1=C[C@]2(CCC13OCCO3)COc1ccccc12`, for which the TGI in [1], in [2], in [3], in [4], in [8] and in assay [5] was above 100 µM throughout. Moreover, the TGI in assay [9], in assay [7] and in [10] was above 100 µM throughout.

Take `O=C(CCC(=O)OCC1OC(O)(CC2OC(CO)C(O)C(O)C2O)C(O)C1O)OCc1ccccc1` (stereo not drawn): the TGI in [1], in assay [2], in [3], in assay [4], in [5] and in assay [6] was above 100 µM each time. Also, the TGI in assay [9] and in assay [7] was above 100 µM throughout.

On to `COc1ccc(/C=C/C(c2cc(OC)c(OC)c(OC)c2)n2cncn2)cc1O` (stereo not drawn), for which the GI50 in assay [1] was above 100 µM; in assay [3], 7.19 µM; in assay [4], 0.0508 µM; in [5] it was 0.032 µM; in [6] it was 5.83 µM; in assay [9] it was 0.041 µM. Also, the GI50 in [7] was 3.62 µM; in assay [10], 0.037 µM. Besides, the TGI in assay [1], in assay [3], in [4], in assay [5], in [6] and in assay [9] was above 100 µM in each case. Further, the results for the TGI in assay [7] and in assay [10] were above 100 µM and 42.2 µM, respectively.

Turning to `O=C1CC(Cl)c2c(Cl)sc(Cl)c21` (stereo not drawn), the TGI worked out at 9.25 µM in [1]; 2.82 µM in assay [2]; 3.15 µM in assay [3]; 5.07 µM in assay [4]; 2.37 µM in assay [8]; 5.09 µM in [6]. The TGI in assay [9] was 3.12 µM; in [7], 4.58 µM.

For `CC(C)(CN1CCCCC1)C(=O)/C=C/c1c(Cl)cccc1Cl`, the TGI in [1] was 6.36 µM; in assay [2], 2.89 µM; in [3], 3.1 µM; in assay [4], 2.28 µM; in [5], 2.73 µM; in [6] it was 1.13 µM. In addition, the TGI in assay [9] came out at 2.02 µM; in [7], 3.2 µM.

On to `COc1cc(C2C3=C(N=C4SC(C(C)=O)=C(C)N42)c2ccccc2CC3)cc(OC)c1OC` (stereo not drawn), for which the TGI in assay [1], in [2], in [3], in assay [5], in assay [6] and in [9] was above 100 µM throughout. The values for the TGI in assay [7] and in [10] were above 100 µM and 93.4 µM, respectively.
